Test results reported in US20190224166A1, “Compositions and Methods for Treating Muscle Loss” (Augusta University Research Institute, Inc., priority 2018, published 2019).

Tested on: quadriceps muscle
Experiment: Proteomic analysis of quadriceps muscle of aged mice treated with 1-methyl-D-tryptophan (Table 1, TOPPGENE enrichment)
Assay type: in vivo
Experimental: Female mice 22 months of age were obtained from the National Institute on Aging and treated with saline (vehicle) or 1-methyl-D-tryptophan (1-MT, Sigma, 452483, lot#MKBZ1441V) at a low dose (10 mg/kg BW) or at a high dose (100 mg/kg BW). Mice were treated daily for 4 weeks. Treatments were administered i.p. with an injection volume of 0.2 ml following IACUC approved procedures. Mice were euthanized by CO2 overdose and muscles harvested for analysis. One quadriceps muscle was snap frozen for proteomics and the other quadriceps muscle fixed in buffered formalin for paraffin embedding and trichrome staining. The tibialis anterior was placed in PBS for amplex red assay.
The IDO inhibitor, 1-methyl-D-tryptophan, blocks kynurenine production and reduces levels of ROS in muscle.

Cn1cc(C[C@@H](N)C(=O)O)c2ccccc21 [1MT]
1MT vs Control: E3 ubiquitin-protein ligase UBR4 (A2AN08, GN = Ubr4): 0.5 | 1MT vs Control: Ryanodine receptor 1 (E9PZQ0, GN = Ryr1): 0.6614 | 1MT vs Control: Hexokinase-2 (O08528, GN = Hk2): 0.3158 | 1MT vs Control: Peroxiredoxin-6 (O08709, GN = Prdx6): 0.7083 | 1MT vs Control: Dihydrolipoyl dehydrogenase, mitochondrial (O08749, GN = Dld): 0.8444 | 1MT vs Control: Proteasome subunit beta type-1 (O09061, GN = Psmb1): 0.5556 | 1MT vs Control: Calsequestrin-1 (O09165, GN = Casq1): 0.9036 | 1MT vs Control: Branched-chain-amino-acid aminotransferase, mitochondrial (O35855, GN = Bcat2): 0.5 | 1MT vs Control: Polymerase I and transcript release factor (O54724, GN = Ptrf): 0.9 | 1MT vs Control: Protein NipSnap homolog 2 (O55126, GN = Gbas): 0.5294 | 1MT vs Control: Phosphoglycerate mutase 2 (O70250, GN = Pgam2): 0.8457 | 1MT vs Control: Voltage-dependent calcium channel gamma-1 subunit (O70578, GN = Cacng1): 0.75 | 1MT vs Control: Reticulon-2 (O70622, GN = Rtn2): 0.3 | 1MT vs Control: Alpha-actinin-3 (O88990, GN = Actn3): 0.8638 | 1MT vs Control: Complement C3 (P01027, GN = C3): 0.5294 | 1MT vs Control: Hemoglobin subunit alpha (P01942, GN = Hba): 0.5714 | 1MT vs Control: Hemoglobin subunit beta-1 (P02088, GN = Hbb-b1): 0.688 | 1MT vs Control: Myoglobin (P04247, GN = Mb): 0.381 | 1MT vs Control: Aspartate aminotransferase, cytoplasmic (P05201, GN = Got1): 0.8115 | 1MT vs Control: Aspartate aminotransferase, mitochondrial (P05202, GN = Got2): 0.6944 | 1MT vs Control: Myosin light chain 1/3, skeletal muscle isoform (P05977, GN = Myl1): 0.7007 | 1MT vs Control: Glucose-6-phosphate isomerase (P06745, GN = Gpi): 0.8424 | 1MT vs Control: Serum albumin (P07724, GN = Alb): 0.8778 | 1MT vs Control: Serine protease inhibitor A3K (P07759, GN = Serpina3k): 0.5238 | 1MT vs Control: Malate dehydrogenase, mitochondrial (P08249, GN = Mdh2): 0.915 | 1MT vs Control: Superoxide dismutase [Mn], mitochondrial (P09671, GN = Sod2): 0.45 | 1MT vs Control: Eukaryotic initiation factor 4A-II (P10630, GN = Eif4a2): 0.6 | 1MT vs Control: Thioredoxin (P10639, GN = Txn): 0.6154 | 1MT vs Control: Fatty acid-binding protein, heart (P11404, GN = Fabp3): 0.6667 | 1MT vs Control: Calcium/calmodulin-dependent protein kinase type II subunit alpha (P11798, GN = Camk2a): 0.4444 | 1MT vs Control: cAMP-dependent protein kinase type II-alpha regulatory subunit (P12367, GN = Prkar2a): 0.8333 | 1MT vs Control: Malate dehydrogenase, cytoplasmic (P14152, GN = Mdh1): 0.7895 | 1MT vs Control: Heat shock protein beta-1 (P14602, GN = Hspb1): 0.5385 | 1MT vs Control: Annexin A6 (P14824, GN = Anxa6): 0.7045 | 1MT vs Control: Selenium-binding protein 1 (P17563, GN = Selenbp1): 0.625 | 1MT vs Control: Cathepsin D (P18242, GN = Ctsd): 0.8 | 1MT vs Control: Glutathione S-transferase P 1 (P19157, GN = Gstp1): 0.7436 | 1MT vs Control: Thioredoxin-dependent peroxide reductase, mitochondrial (P20108, GN = Prdx3): 0.6875 | 1MT vs Control: Leukotriene A-4 hydrolase (P24527, GN = Lta4h): 0.6667 | 1MT vs Control: Retinal dehydrogenase 1 (P24549, GN = Aldh1a1): 0.375 | 1MT vs Control: Glutamate dehydrogenase 1, mitochondrial (P26443, GN = Glud1): 0.75 | 1MT vs Control: 26S proteasome non-ATPase regulatory subunit 7 (P26516, GN = Psmd7): 0.8333 | 1MT vs Control: Adenylosuccinate synthetase isozyme 1 (P28650, GN = Adssl1): 0.8583 | 1MT vs Control: Parvalbumin alpha (P32848, GN = Pvalb): 0.7209 | 1MT vs Control: Pyruvate dehydrogenase E1 component subunit alpha, somatic form, mitochondrial (P35486, GN = Pdha1): 0.5714 | 1MT vs Control: Peroxiredoxin-1 (P35700, GN = Prdx1): 0.9138 | 1MT vs Control: Stress-70 protein, mitochondrial (P38647, GN = Hspa9): 0.4 | 1MT vs Control: Enoyl-CoA delta isomerase 1, mitochondrial (P42125, GN = Eci1): 0.3333 | 1MT vs Control: Medium-chain specific acyl-CoA dehydrogenase, mitochondrial (P45952, GN = Acadm): 0.75 | 1MT vs Control: Carnitine O-acetyltransferase (P47934, GN = Crat): 0.3913 | 1MT vs Control: ADP/ATP translocase 1 (P48962, GN = Slc25a4): 0.4561 | 1MT vs Control: Long-chain specific acyl-CoA dehydrogenase, mitochondrial (P51174, GN = Acadl): 0.3269 | 1MT vs Control: Isocitrate dehydrogenase [NADP], mitochondrial (P54071, GN = Idh2): 0.3684 | 1MT vs Control: Adenylosuccinate lyase (P54822, GN = Adsl): 0.5172 | 1MT vs Control: Adenosine kinase (P55264, GN = Adk): 0.4545 | 1MT vs Control: ATP synthase subunit beta, mitochondrial (P56480, GN = Atp5b): 0.6321 | 1MT vs Control: Elongation factor 1-delta (P57776, GN = Eef1d): 0.8 | 1MT vs Control: 14-3-3 protein gamma (P61982, GN = Ywhag): 0.5417 | 1MT vs Control: Serine/threonine-protein phosphatase PP1-beta catalytic subunit (P62141, GN = Ppp1cb): 0.2857 | 1MT vs Control: Cytochrome c, somatic (P62897, GN = Cycs): 0.7778 | 1MT vs Control: Nuclease-sensitive element-binding protein 1 (P62960, GN = Ybx1): 0.6 | 1MT vs Control: Profilin-1 (P62962, GN = Pfn1): 0.8333 | 1MT vs Control: 60 kDa heat shock protein, mitochondrial (P63038, GN = Hspd1): 0.2222 | 1MT vs Control: Eukaryotic translation initiation factor 5A-1 (P63242, GN = Eif5a): 0.8936 | 1MT vs Control: Guanine nucleotide-binding protein subunit beta-2-like 1 (P68040, GN = Gnb2l1): 0.8889 | 1MT vs Control: Histidine triad nucleotide-binding protein 1 (P70349, GN = Hint1): 0.8667 | 1MT vs Control: Isocitrate dehydrogenase [NAD] subunit gamma 1, mitochondrial (P70404, GN = Idh3g): 0.4286 | 1MT vs Control: Fructose-1,6-bisphosphatase isozyme 2 (P70695, GN = Fbp2): 0.6078 | 1MT vs Control: Spermine synthase (P97355, GN = Sms): 0.5455 | 1MT vs Control: Histone-lysine N-methyltransferase Smyd1 (P97443, GN = Smyd1): 0.8143 | 1MT vs Control: Myosin regulatory light chain 2, skeletal muscle isoform (P97457, GN = Mylpf): 0.6453 | 1MT vs Control: Fumarate hydratase, mitochondrial (P97807, GN = Fh): 0.7414 | 1MT vs Control: Acyl-protein thioesterase 1 (P97823, GN = Lypla1): 0.5 | 1MT vs Control: 60S acidic ribosomal protein P2 (P99027, GN = Rplp2): 0.7143 | 1MT vs Control: Tripartite motif-containing protein 72 (Q1XH17, GN = Trim72): 0.9048 | 1MT vs Control: Secernin-3 (Q3TMH2, GN = Scrn3): 0.6667 | 1MT vs Control: Trimeric intracellular cation channel type A (Q3TMP8, GN = Tmem38a): 0.6923 | 1MT vs Control: AMP deaminase 1 (Q3V1D3, GN = Ampd1): 0.86 | 1MT vs Control: UDP-glucose: glycoprotein glucosyltransferase 1 (Q6P5E4, GN = Uggt1): 0.2857 | 1MT vs Control: Creatine kinase S-type, mitochondrial (Q6P8J7, GN = Ckmt2): 0.3977 | 1MT vs Control: Sodium/potassium-transporting ATPase subunit alpha-2 (Q6PIE5, GN = Atp1a2): 0.5143 | 1MT vs Control: Calcium-binding mitochondrial carrier protein Aralar1 (Q8BH59, GN = Slc25a12): 0.3939 | 1MT vs Control: EH domain-containing protein 2 (Q8BH64, GN = Ehd2): 0.5714 | 1MT vs Control: Dihydrolipoyllysine-residue acetyltransferase component of pyruvate dehydrogenase complex, mitochondrial (Q8BMF4, GN = Dlat): 0.6053 | 1MT vs Control: Trifunctional enzyme subunit alpha, mitochondrial (Q8BMS1, GN = Hadha): 0.561 | 1MT vs Control: Isoleucine--tRNA ligase, cytoplasmic (Q8BU30, GN = Iars): 0.75 | 1MT vs Control: Fructose-2,6-bisphosphatase TIGAR (Q8BZA9, GN = Tigar): 0.6944 | 1MT vs Control: PDZ and LIM domain protein 5 (Q8CI51, GN = Pdlim5): 0.6667 | 1MT vs Control: Succinate dehydrogenase [ubiquinone] flavoprotein subunit, mitochondrial (Q8K2B3, GN = Sdha): 0.7037 | 1MT vs Control: 5-oxoprolinase (Q8K010, GN = Oplah): 0.75 | 1MT vs Control: Acetyl-CoA acetyltransferase, mitochondrial (Q8QZT1, GN = Acat1): 0.9231 | 1MT vs Control: Sarcoplasmic/endoplasmic reticulum calcium ATPase 1 (Q8R429, GN = Atp2a1): 0.9045 | 1MT vs Control: Carboxylesterase 1D (Q8VCT4, GN = Ces1d): 0.8571 | 1MT vs Control: Phosphate carrier protein, mitochondrial (Q8VEM8, GN = Slc25a3): 0.3333 | 1MT vs Control: G-protein coupled receptor 98 (Q8VHN7, GN = Gpr98): 0.6667 | 1MT vs Control: 2,4-dienoyl-CoA reductase, mitochondrial (Q9CQ62, GN = Decr1): 0.375 | 1MT vs Control: Bifunctional purine biosynthesis protein PURH (Q9CWJ9, GN = Atic): 0.8571 | 1MT vs Control: Cytochrome b-c1 complex subunit 1, mitochondrial (Q9CZ13, GN = Uqcrc1): 0.25 | 1MT vs Control: Citrate synthase, mitochondrial (Q9CZU6, GN = Cs): 0.5333 | 1MT vs Control: Succinyl-CoA: 3-ketoacid coenzyme A transferase 1, mitochondrial (Q9D0K2, GN = Oxct1): 0.75 | 1MT vs Control: Cytosolic non-specific dipeptidase (Q9D1A2, GN = Cndp2): 0.8 | 1MT vs Control: Protein-cysteine N-palmitoyltransferase HHAT-like protein (Q9D1G3, GN = Hhatl): 0.4545 | 1MT vs Control: Dihydrolipoyllysine-residue succinyltransferase component of 2-oxoglutarate dehydrogenase complex, mitochondrial (Q9D2G2, GN = Dlst): 0.4857 | 1MT vs Control: Ribose-phosphate pyrophosphokinase 1 (Q9D7G0, GN = Prps1): 0.8723 | 1MT vs Control: 60S ribosomal protein L4 (Q9D8E6, GN = Rpl4): 0.6667 | 1MT vs Control: Pyruvate dehydrogenase E1 component subunit beta, mitochondrial (Q9D051, GN = Pdhb): 0.6279 | 1MT vs Control: 14 kDa phosphohistidine phosphatase (Q9DAK9, GN = Phpt1): 0.75 | 1MT vs Control: Cytochrome b-c1 complex subunit 2, mitochondrial (Q9DB77, GN = Uqcrc2): 0.3958 | 1MT vs Control: Trans-1,2-dihydrobenzene-1,2-diol dehydrogenase (Q9DBB8, GN = Dhdh): 0.8333 | 1MT vs Control: Electron transfer flavoprotein subunit beta (Q9DCW4, GN = Etfb): 0.5 | 1MT vs Control: Methylmalonate-semialdehyde dehydrogenase [acylating], mitochondrial (Q9EQ20, GN = Aldh6a1): 0.65 | 1MT vs Control: Ubiquitin carboxyl-terminal hydrolase 14 (Q9JMA1, GN = Usp14): 0.8 | 1MT vs Control: Prolyl endopeptidase (Q9QUR6, GN = Prep): 0.5 | 1MT vs Control: Plectin (Q9QXS1, GN = Plec): 0.4894 | 1MT vs Control: Vesicle-associated membrane protein-associated protein B (Q9QY76, GN = Vapb): 0.5333 | 1MT vs Control: S-formylglutathione hydrolase (Q9R0P3, GN = Esd): 0.8929 | 1MT vs Control: Proteasome subunit alpha type-1 (Q9R1P4, GN = Psma1): 0.375 | 1MT vs Control: Glycogen phosphorylase, muscle form (Q9WUB3, GN = Pygm): 0.9185 | 1MT vs Control: Glycogen [starch] synthase, muscle (Q9Z1E4, GN = Gys1): 0.6275 | 1MT vs Control: Succinyl-CoA ligase [ADP-forming] subunit beta, mitochondrial (Q9Z2I9, GN = Sucla2): 0.52 | 1MT vs Control: Nucleosome assembly protein 1-like 4 (Q78ZA7, GN = Nap1l4): 0.8571 | 1MT vs Control: Hemopexin (Q91X72, GN = Hpx): 0.7391 | 1MT vs Control: NADH dehydrogenase [ubiquinone] flavoprotein 1, mitochondrial (Q91YT0, GN = Ndufv1): 0.4
